Laboratory results: the supplement of paper PMC10307832

Key:
Assay in all cases: relative viability (nuclei count vs DMSO), 5 days (fraction); higher = more cells survive
Carboplatin + AZD7762 = compound: C1CC(C1)(C(=O)O)C(=O)O.[NH2-].[NH2-].[Pt+2] [Carboplatin] + NC(=O)Nc1cc(-c2cccc(F)c2)sc1C(=O)N[C@H]1CCCNC1 [AZD7762] (partner 0.2 µM)
Summary of the method: (§1)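 Lung cancer cell lines in 1536-well plates got either a single drug or a fixed anchor-drug dose together with five library-drug doses (not always all listed) in √10 steps, by pin tool, on the day after seeding. Nuclei were counted after 5 days, and relative viability is the treated-to-vehicle ratio of nuclei counts. Values are medians of duplicate plates.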

GSK126 + Palbociclib = compound: CC[C@H](C)N1C=C(C2=C(C=C(C=C21)C3=CN=C(C=C3)N4CCNCC4)C(=O)NCC5=C(C=C(NC5=O)C)C)C [GSK126] + CC(=O)c1c(C)c2cnc(Nc3ccc(N4CCNCC4)cn3)nc2n(C2CCCC2)c1=O [Palbociclib] (partner 0.5 µM)
Summary of the method: as §1

GSK126 + Linsitinib = compound: CC[C@H](C)N1C=C(C2=C(C=C(C=C21)C3=CN=C(C=C3)N4CCNCC4)C(=O)NCC5=C(C=C(NC5=O)C)C)C [GSK126] + C[C@]1(O)C[C@@H](c2nc(-c3ccc4ccc(-c5ccccc5)nc4c3)c3c(N)nccn32)C1 [Linsitinib] (partner 1 µM)
Summary of the method: as §1

MLN4924 + Palbociclib = compound: NS(=O)(=O)OC[C@@H]1C[C@@H](n2ccc3c(N[C@H]4CCc5ccccc54)ncnc32)C[C@@H]1O [MLN4924] + CC(=O)c1c(C)c2cnc(Nc3ccc(N4CCNCC4)cn3)nc2n(C2CCCC2)c1=O [Palbociclib] (partner 0.5 µM)
Summary of the method: as §1

Cell Line | relative viability (Carboplatin + AZD7762; first compound 0.08 µM) | relative viability (Carboplatin + AZD7762; first compound 0.253 µM) | relative viability (Carboplatin + AZD7762; first compound 0.8 µM) | relative viability (Carboplatin + AZD7762; first compound 2.53 µM) | relative viability (Carboplatin + AZD7762; first compound 8 µM) | relative viability (GSK126 + Palbociclib; first compound 0.08 µM) | relative viability (GSK126 + Palbociclib; first compound 0.253 µM) | relative viability (GSK126 + Palbociclib; first compound 0.8 µM) | relative viability (GSK126 + Palbociclib; first compound 2.53 µM) | relative viability (GSK126 + Palbociclib; first compound 8 µM) | relative viability (GSK126 + Linsitinib; first compound 0.08 µM) | relative viability (GSK126 + Linsitinib; first compound 0.253 µM) | relative viability (GSK126 + Linsitinib; first compound 0.8 µM) | relative viability (GSK126 + Linsitinib; first compound 2.53 µM) | relative viability (GSK126 + Linsitinib; first compound 8 µM) | relative viability (MLN4924 + Palbociclib; first compound 0.04 µM) | relative viability (MLN4924 + Palbociclib; first compound 0.1265 µM) | relative viability (MLN4924 + Palbociclib; first compound 0.4 µM) | relative viability (MLN4924 + Palbociclib; first compound 1.265 µM) | relative viability (MLN4924 + Palbociclib; first compound 4 µM)
NCI-H460 | 0.612 | 0.53 | 0.524 | 0.279 | 0.111 | 0.171 | 0.199 | 0.154 | 0.148 | 0.173 | 0.76 | 0.784 | 0.787 | 0.798 | 0.969 | 0.189 | 0.121 | 0.0985 | 0.0213 | 0.0283
NCI-H647 | 0.604 | 0.474 | 0.444 | 0.476 | 0.303 | 0.482 | 0.366 | 0.363 | 0.382 | 0.5 | 1.47 | 1.28 | 1.17 | 1.07 | 1.08 | 0.22 | 0.264 | 0.0524 | 0.029 | 0.0424
NCI-H650 | 0.985 | 0.948 | 0.778 | 0.863 | 0.721 | 0.349 | 0.315 | 0.331 | 0.322 | 0.352 | 1.11 | 0.789 | 0.934 | 0.974 | 1.13 | 0.307 | 0.182 | 0.159 | 0.136 | 0.166
NCI-H727 | 0.579 | 0.461 | 0.628 | 0.685 | 0.639 | 0.681 | 0.641 | 0.67 | 0.75 | 0.659 | 0.218 | 0.388 | 0.26 | 0.319 | 0.364 | 0.681 | 0.584 | 0.566 | 0.476 | 0.535
NCI-H838 | 1.09 | 0.957 | 0.837 | 0.869 | 0.758 | 0.264 | 0.223 | 0.202 | 0.212 | 0.234 | 1.12 | 0.979 | 0.952 | 0.906 | 0.866 | 0.253 | 0.256 | 0.175 | 0.138 | 0.138
NCI-H1355 | 0.98 | 0.877 | 0.626 | 0.791 | 0.729 | 0.446 | 0.365 | 0.417 | 0.405 | 0.413 | 0.947 | 0.872 | 0.793 | 0.637 | 0.841 | 0.418 | 0.409 | 0.445 | 0.234 | 0.195
NCI-H1395 | 0.403 | 0.39 | 0.406 | 0.386 | 0.405 | 0.656 | 0.568 | 0.597 | 0.681 | 0.505 | 1.26 | 1.01 | 0.991 | 0.998 | 1.08 | 0.726 | 0.679 | 0.528 | 0.357 | 0.354
NCI-H1437 | 1.22 | 1.09 | 0.927 | 0.955 | 1.03 | 0.313 | 0.278 | 0.293 | 0.279 | 0.316 | 1.07 | 1.07 | 0.954 | 0.983 | 0.938 | 0.292 | 0.321 | 0.228 | 0.187 | 0.134
NCI-H1651 | 0.539 | 0.537 | 0.447 | 0.456 | 0.436 | 0.493 | 0.512 | 0.515 | 0.537 | 0.514 | 1.07 | 0.815 | 0.855 | 0.972 | 1.05 | 0.521 | 0.54 | 0.569 | 0.374 | 0.191
NCI-H1666 | 0.973 | 0.916 | 0.811 | 0.779 | 0.831 | 0.642 | 0.613 | 0.6 | 0.636 | 0.692 | 0.857 | 1.01 | 0.898 | 0.768 | 1.08 | 0.553 | 0.549 | 0.693 | 0.492 | 0.46
NCI-H1734 | 0.575 | 0.558 | 0.558 | 0.46 | 0.419 | 0.384 | 0.348 | 0.342 | 0.375 | 0.333 | 0.871 | 0.896 | 0.814 | 0.846 | 0.946 | 0.372 | 0.341 | 0.272 | 0.14 | 0.146
NCI-H1755 | 0.445 | 0.477 | 0.491 | 0.465 | 0.419 | 0.465 | 0.394 | 0.458 | 0.43 | 0.445 | 1.01 | 1.04 | 1.01 | 0.967 | 1.03 | 0.4 | 0.442 | 0.314 | 0.209 | 0.257
NCI-H1792 | 0.924 | 0.669 | 0.606 | 0.457 | 0.352 | 0.642 | 0.627 | 0.659 | 0.661 | 0.629 | 0.561 | 0.639 | 0.51 | 0.571 | 0.498 | 0.654 | 0.583 | 0.689 | 0.453 | 0.353
NCI-H1793 | 0.667 | 0.457 | 0.393 | 0.334 | 0.58 | 0.351 | 0.318 | 0.299 | 0.351 | 0.273 | 1.04 | 0.777 | 0.748 | 0.982 | 0.82 | 0.338 | 0.295 | 0.442 | 0.265 | 0.214
NCI-H1915 | 0.64 | 0.706 | 0.679 | 0.647 | 0.39 | 0.554 | 0.496 | 0.516 | 0.56 | 0.583 | 1.2 | 1.08 | 1.14 | 1.17 | 1.16 | 0.501 | 0.396 | 0.389 | 0.161 | 0.121
